# In US20250269072A1, “PROCESSES FOR PREPARING RADIOLABELLED CONJUGATES” (CENTENARY INSTITUTE OF CANCER MEDICINE AND CELL BIOLOGY, priority 2021, published 2025):
# Test system: tumour deposits
# Assay: Human studies: tumour uptake by PET and histological correlation
# Assay type: in vivo
# Excerpt: patient with squamous cell carcinoma of the oesophagus • 2. Person with metastatic ovarian carcinoma • 3. Person with metastatic cutaneous squamous cell carcinoma • 4. Person with invasive ductal breast carcinoma.
# Whilst blood pool and clearance are reproducible, tumour uptake and clearance vary by tumour type.
# Dissected tumours were fixed in formalin, embedded in paraffin and 4 μm thick sections were cut. Adjacent sections were stained for apoptotic cells using TUNEL (Abcam, Cat #206386) or morphology using haematoxylin and eosin. For TUNEL staining, sections were deparaffinized in xylene, rehydrated in decreasing concentrations of ethanol and permeabilized with Proteinase K for 20 min at room temperature. The endogenous peroxidase activity was quenched with 3% H2O2 for 5 min. Apoptotic cells were labelled with biotinylated terminal deoxynucleotidyl transferase at 37° C. in a humidified chamber for 2 h followed by a 30 min incubation with streptavidin-HRP conjugate. HRP-positive cells were developed using diaminobenzidine and sections counterstained with methyl green (Sigma). Whole sections were imaged using PowerMosaic scanning at 10× magnification on a Leica DM6000D microscope.
smiles,measurement,setting,value
O=C(O)CNC(=O)[C@H](CSCC(=O)Nc1ccc([As](O)O)cc1)NC(=O)CC[C@H](NC(=O)CCC1C(=O)[O][68Ga]2[O]C(=O)CN3CCN(CCN1CC3)CC(=O)[O]2)C(=O)O (stereo partly shown) [^68Ga-NODAGA-GSAO],tumour uptake SUVmean,breast carcinoma,1.8
same,correlation of tumour uptake with dead and dying cells,histopathology,correlate with the proportion of dead and dying cells within the tumour
same,tumour uptake SUVmean,metastatic cutaneous squamous cell carcinoma,4.1
same,tumour uptake SUVmean,metastatic ovarian carcinoma,1.9
same,tumour uptake SUVmean,"patient 3, right axillary nodal metastasis",4.1
same,tumour uptake SUVmean,squamous cell carcinoma of the oesophagus,3.8
same,tumour uptake relative to blood pool,tumours with high uptake,up to 2 fold
